The results in this text go back to US5034548A, “Steroid derivatives useful as hypocholesterolemics” (E. I. Du Pont de Nemours and Company, priority 1990, dated 1991).

In assay [1] the test system is 3-Hydroxy-3-Methylglutaryl Coenzyme A Reductase (HMGR). Put plainly: HMGR Suppression Assay in digitonin-permeabilized CHO cells. The format is cell-based, Chinese Hamster. The following applies: 6 hr incubation at 37°, amount to suppress HMGR activity by 50% relative to controls. As for the experimental part: The ability of the compounds of Formula I to suppress the activity of HMGR, the rate limiting enzyme of cholesterol biosynthesis, was tested as follows. Chinese Hamster Ovary (CHO) cells were divided twice weekly and were maintained in McCoy's 5A medium supplemented with 1% Cab-O-Sil delipidated Fetal Bovine Serum (FBS) (obtained from Gibco Laboratories, Chagrin Falls, Ohio). Cells were harvested during the logarithmic phase of growth and cell cultures were prepared by adding 0.5×10^6 cells to wash well in a 24 well cluster dish (obtained from Costar, Data Packaging Corp., Cambridge, Mass.) employing 1 mL of the above medium per each well. […] Control cells were treated in an identical fashion to those which received test compound, except they were incubated with the BSA and ethanol suspension only.
Specifically, the medium in each well was aspirated and the cells rinsed with a 50 mM solution of phosphate buffered saline (PBS). One mL of 30 μg/mL of digitonin in CSK buffer (prepared using 10 mM Pipes [piperazine-N,N'-bis(2-ethansulfonic)acid'], 100 mM KCl, 2.5 mM MgCl2, 300 mM sucrose, 1 mM EGTA, pH 6.8) was added to each well and incubated for 10 min at 22° to permeabilize the cells. The buffer was carefully aspirated and the wells were rinsed twice each time with 1 mL of PBS. HMGR activity was measured directly by adding 75 μL of PIB buffer (50 mM potassium phosphate, 1 mM Na2 EDTA, 10 mM dithiothreitol, pH 7.4) to each well and incubating the cells for 30 minutes at 37° as described above. […] HMG-Coenzyme A (15 DPM/pmol), pH 7.4. The assay mixture was incubated for 30 min at 37° and terminated by the addition of 70 μL of [^3 H]-mevalonic acid (35,000 DPM/assay), 0.15 mg/mL in 3 N HCl. The reaction was left to lactonize for an additional 30 min at 37° or overnight at room temperature.
Reaction products were separated by thin layer chromatography on silica gel G (obtained from Analtech, Newark, Del.) developed in an unsaturated environment with acetone:benzene (3:2, v:v). The band corresponding to mevalonolactone was identified by exposure to iodine vapor and was scraped into counting vials. The extent of conversion of starting substrate, HMG-CoA, to mevalonic acid was determined by liquid scintillation counting in Biofluor (obtained from New England Nuclear, Boston, Mass). Corrections for recovery and blank values were made for each sample. Protein determinations were made by the Bio-rad (Bio-Rad, Richmond, Cal.) dye binding assay according to the manufacturer's instruction using bovine serum albumin as standard. Cellular protein was solubilized from culture dishes by the addition of 20 μL of 16 N KOH and assayed directly for protein amount. Suppression values are expressed as the amount of compound required to suppress HMGR activity by 50% relative to that of the controls.

For assay [2], the target named is T1, Lanosta-8,24-dien-3β-ol 14α-methyl demethylase (Rattus norvegicus, UniProt Q64654).
T1 construct: determined in rat depatic microsomal preparations; from tissue; host or cells: rat hepatic microsomes
T1 sequence (Q64654 1-503): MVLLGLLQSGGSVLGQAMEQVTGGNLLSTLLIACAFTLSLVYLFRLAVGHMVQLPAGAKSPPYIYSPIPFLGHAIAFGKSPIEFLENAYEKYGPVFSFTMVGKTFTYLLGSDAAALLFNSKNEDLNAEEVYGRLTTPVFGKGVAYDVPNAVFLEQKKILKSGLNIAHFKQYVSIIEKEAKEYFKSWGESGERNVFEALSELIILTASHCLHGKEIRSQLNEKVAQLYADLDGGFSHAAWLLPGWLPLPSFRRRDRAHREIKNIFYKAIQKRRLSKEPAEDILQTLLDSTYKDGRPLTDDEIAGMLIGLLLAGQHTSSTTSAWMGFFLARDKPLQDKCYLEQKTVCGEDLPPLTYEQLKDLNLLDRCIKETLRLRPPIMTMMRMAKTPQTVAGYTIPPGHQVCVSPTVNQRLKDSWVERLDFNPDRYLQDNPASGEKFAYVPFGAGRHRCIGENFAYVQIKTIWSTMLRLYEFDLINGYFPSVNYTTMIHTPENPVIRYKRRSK
Put plainly: Lanosta-8,24-dien-3β-ol 14α-Methyl Demethylase Inhibition Assay. The assay is classed as biochemical. The following applies: rat hepatic microsomal preparations, 100 μM lanost-8-en-3β-ol substrate, pH not given; test compounds 0 to 100 μM. As for the experimental part: Lanosta-8,24-dien-3β-ol 14α-methyl demethylase activity was determined in rat depatic microsomal preparations as described in Trzaskos et al., J. Biol. Chem., 261, 16937-16942 (1986). Specifically, test compounds were added to assay mixtures as detergent suspensions with substrate employing 5 mg Triton WR-1339, 100 μM lanost-8-en-3β-ol substrate, and test compounds ranging from 0 to 100 μM. The inhibitor/substrate/detergent suspension was incubated with 2 mg microsomal protein for 5 min at 37° followed by a 10 min incubation initiated by the addition of cofactors required for the reaction. […] Inhibition values are expressed as the amount of compound required to inhibit lanosta-8,24-dien-3β-ol 14α-methyldemethylase activity by 50% relative to that of the controls.

Assay [3] has as its system cholesterol synthesis in CHO cells. Put plainly: De novo cholesterol synthesis: incorporation of radiolabeled acetate into cholesterol in CHO cells. The assay is classed as cell-based, Chinese Hamster. The conditions noted are these: for Cholesterol Synthesis (DPMs): 17 hr + 2 hr with [14C]-acetic acid, Control 38855. As for the experimental part:
The ability of the compounds of Formula I to decrease de novo cholesterol synthesis was tested by measuring the incorporation of radiolabeled acetate into cholesterol synthesized in CHO cells. To conduct this experiment, CHO cells were plated at 0.3×10^6 cells per 15×60 mm tissue culture dish in 5 mL of McCoy's modified medium (Gibco Laboratories) containing 1% Cab-O-Sil delipidated FBS and incubated for 48 hours at 37° in a 5% CO2, 95% air environment. Test compounds in a 2.5% suspension of BSA (fatty acid free) in ethanol were then added to the cultures such that the final ethanol and BSA concentrations were 0.5% and […], respectively. Control cultures received ethanol and BSA alone. The cultures containing test compounds were then incubated at 37° in a 5% Co, 95% air environment for 17 hr before the addition of [1,2-^14 C]-acetic acid (57 μCi/mmol); obtained from New England Nuclear, Boston, Mass.) at a concentration of 10 μCi/mL for 2 additional hr.
The cells were harvested by washing the cells twice with 5 mL of cold PBS and scraping the cells into 1 mL PBS. The cell-containing solution was then transferred to 15 mL extraction tubes and treated with 1 mL of 90% methanol (containing 15% KOH, 100 μg/mL butylated hydroxytoluene). All samples were saponified for 1 hr at 80° and the non-saponifiable lipids then extracted with petroleum ether. The petroleum ether fractions were dried under nitrogen, resuspended in ethanol, counted and analyzed by reverse phase HPLC at 45° using an Ultrashpere Octyl column (from Altex Scientific Inc., Berkeley, Calif.) with a mobile phase of acetonitrile:methanol:water (44:44:12). The amount of cholesterol synthesis is measured by the amount of radiolabeled acetate incorporated into the cholesterol peak. The percent of cholesterol synthesis in the treated culture is calculated based upon the control culture.

Assay [4] in a line: Lowering blood (plasma) cholesterol levels in hamsters. The format is in vivo, Male Golden Syrian hamsters. The following applies: 0.2% (w/w) in diet, 7 days, N = 16, means±SEM. As to the method: Male Golden Syrian hamsters (50-60 grams) were obtained from Charles River, Inc. (Wilmington, Mass.). Animals were housed in individual suspension cages and were maintained on a light cycle consisting of 12 hours of light followed by 12 hours of dark. Animals were allowed free access to water and feed (Agway ground chow, RMH 3200, Agway, Syracuse, N.Y.) containing 1% (w/w) corn oil) for a minimum of 4 weeks. Following this stabilization period a sample of blood was collected by orbital sinus bleeding under light ether anesthesia into heparinized capillary tubes. Plasma was separated by centrifugation (600×g for 10 minutes) and plasma cholesterols were determined by an autoanalyzer (Centrifichem 600, Baker Instruments, Allentown, Pa.). Based upon measured plasma cholesterol values, the animals were randomized into two groups such that the mean plasma cholesterol values were identical for both groups.
Animals in the two groups were then placed on one of two diets: (1) Diet A, consisting of ground chow plus 1% (w/w) corn oil, as described above; or (2) Diet B, consisting of Diet A plus 0.2% (w/w) of a test compound. Animals on Diet B, the treated animals, were allowed free access to feed and water, while animals on Diet A were pair-matched with Diet B animals and served as pair-fed controls. […] Total plasma cholesterol levels were determined as described above. […]

For `CC(C)CCC[C@@H](C)[C@H]1CC(=NO)[C@@]2(C)C3=CC[C@H]4C(C)(C)[C@@H](O)CC[C@]4(C)[C@H]3CC[C@]12C` [Compound 31b, 3β-hydroxy-lanost-7-en-15-oxime], the IC50 was 200 nM in assay [1] and 55000 nM in assay [2]. In assay [3] (0.5 μM), the “Cholesterol Synthesis (DPMs)” value was determined as 24064 DPMs. The compound further showed an activity at 0.5 µM in assay [3] (Cricetulus griseus, 19 h, 0.5 μM, percent of control culture (100)) of 62%. The “Plasma Cholesterol, Treated” value in assay [4] (pair-fed control 136.0 ± 4.8) amounted to 69.6 ± 2.6 mg/dL.
For the compound `CC(C)CCC[C@@H](C)[C@H]1C[C@H](O)[C@@]2(O)C3=C(CC[C@]12C)[C@@]1(C)CC[C@H](O)C(C)(C)[C@@H]1CC3` [Compound 34a, 4,4-dimethyl-5α-cholest-8-en-3β,14α,15α-triol], the IC50 in assay [1] is 500 nM; in assay [2], 3000 nM. Moreover, the “Cholesterol Synthesis (DPMs)” value in assay [3] (1 μM) came to 16521 DPMs. The same compound gave an activity at 1 µM in assay [3] (Cricetulus griseus, 19 h, 1 μM, percent of control culture (100)) of 43%. In assay [4] (pair-fed control 136.0 ± 3.5), the “Plasma Cholesterol, Treated” value stood at 119.3 ± 2.3 mg/dL.
